How the values were obtained:
[1] = Metabolic stability in rat hepatocyte assessed as intrinsic clearance per 10^8 cells at 0.5 uM by LC-MS/MS analysis; assay type: ADME, cell-based; conditions: hepatocytes
[2] = Hepatic clearance in Sprague-Dawley rat by LC-MS/MS analysis; assay type: ADME; conditions: in vivo
[3] = target: T1, Phosphatidylinositol 4,5-bisphosphate 3-kinase catalytic subunit gamma isoform (Homo sapiens, UniProt P48736); assay: Inhibition of PI3Kgamma (unknown origin) using PIP2 as substrate preincubated for 1 hr followed by substrate addition and measured after 60 mins in presence of ATP by ADP-glo assay
T1 sequence (P48736 whole entry, canonical isoform): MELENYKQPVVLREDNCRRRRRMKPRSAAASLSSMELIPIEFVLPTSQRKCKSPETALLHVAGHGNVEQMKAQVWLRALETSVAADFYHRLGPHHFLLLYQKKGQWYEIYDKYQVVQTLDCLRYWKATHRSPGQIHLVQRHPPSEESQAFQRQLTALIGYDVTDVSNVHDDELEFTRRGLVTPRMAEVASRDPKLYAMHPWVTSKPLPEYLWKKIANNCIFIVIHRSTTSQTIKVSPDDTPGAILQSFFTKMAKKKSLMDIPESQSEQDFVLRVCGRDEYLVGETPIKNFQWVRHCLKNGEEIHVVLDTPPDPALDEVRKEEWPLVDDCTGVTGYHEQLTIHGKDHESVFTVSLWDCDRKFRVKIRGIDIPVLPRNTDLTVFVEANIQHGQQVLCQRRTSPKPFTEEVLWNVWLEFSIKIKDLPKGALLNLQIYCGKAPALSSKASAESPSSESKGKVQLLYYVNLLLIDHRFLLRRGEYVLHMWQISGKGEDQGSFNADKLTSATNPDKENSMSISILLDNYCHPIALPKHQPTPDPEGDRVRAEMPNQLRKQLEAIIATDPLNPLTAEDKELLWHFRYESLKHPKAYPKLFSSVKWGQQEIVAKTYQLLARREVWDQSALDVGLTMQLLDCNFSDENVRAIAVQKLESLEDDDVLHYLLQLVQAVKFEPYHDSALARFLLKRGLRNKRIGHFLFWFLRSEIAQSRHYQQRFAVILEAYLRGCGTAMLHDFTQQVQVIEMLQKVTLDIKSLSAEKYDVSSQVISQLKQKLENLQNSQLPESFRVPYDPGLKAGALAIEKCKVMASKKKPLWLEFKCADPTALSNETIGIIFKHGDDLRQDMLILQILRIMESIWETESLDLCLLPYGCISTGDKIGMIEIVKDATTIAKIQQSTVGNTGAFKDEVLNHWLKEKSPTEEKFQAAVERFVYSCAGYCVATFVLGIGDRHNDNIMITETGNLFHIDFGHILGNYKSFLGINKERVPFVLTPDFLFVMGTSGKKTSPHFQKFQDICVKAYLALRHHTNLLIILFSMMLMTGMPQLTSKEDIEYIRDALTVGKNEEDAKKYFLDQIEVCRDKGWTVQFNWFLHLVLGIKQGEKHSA

[4] = target: T2, Phosphatidylinositol 4,5-bisphosphate 3-kinase catalytic subunit delta isoform (Homo sapiens, UniProt O00329); assay: Inhibition of PI3Kdelta (unknown origin) using PIP2 as substrate preincubated for 1 hr followed by substrate addition and measured after 60 mins in presence of ATP by ADP-glo assay
T2 sequence (O00329 whole entry): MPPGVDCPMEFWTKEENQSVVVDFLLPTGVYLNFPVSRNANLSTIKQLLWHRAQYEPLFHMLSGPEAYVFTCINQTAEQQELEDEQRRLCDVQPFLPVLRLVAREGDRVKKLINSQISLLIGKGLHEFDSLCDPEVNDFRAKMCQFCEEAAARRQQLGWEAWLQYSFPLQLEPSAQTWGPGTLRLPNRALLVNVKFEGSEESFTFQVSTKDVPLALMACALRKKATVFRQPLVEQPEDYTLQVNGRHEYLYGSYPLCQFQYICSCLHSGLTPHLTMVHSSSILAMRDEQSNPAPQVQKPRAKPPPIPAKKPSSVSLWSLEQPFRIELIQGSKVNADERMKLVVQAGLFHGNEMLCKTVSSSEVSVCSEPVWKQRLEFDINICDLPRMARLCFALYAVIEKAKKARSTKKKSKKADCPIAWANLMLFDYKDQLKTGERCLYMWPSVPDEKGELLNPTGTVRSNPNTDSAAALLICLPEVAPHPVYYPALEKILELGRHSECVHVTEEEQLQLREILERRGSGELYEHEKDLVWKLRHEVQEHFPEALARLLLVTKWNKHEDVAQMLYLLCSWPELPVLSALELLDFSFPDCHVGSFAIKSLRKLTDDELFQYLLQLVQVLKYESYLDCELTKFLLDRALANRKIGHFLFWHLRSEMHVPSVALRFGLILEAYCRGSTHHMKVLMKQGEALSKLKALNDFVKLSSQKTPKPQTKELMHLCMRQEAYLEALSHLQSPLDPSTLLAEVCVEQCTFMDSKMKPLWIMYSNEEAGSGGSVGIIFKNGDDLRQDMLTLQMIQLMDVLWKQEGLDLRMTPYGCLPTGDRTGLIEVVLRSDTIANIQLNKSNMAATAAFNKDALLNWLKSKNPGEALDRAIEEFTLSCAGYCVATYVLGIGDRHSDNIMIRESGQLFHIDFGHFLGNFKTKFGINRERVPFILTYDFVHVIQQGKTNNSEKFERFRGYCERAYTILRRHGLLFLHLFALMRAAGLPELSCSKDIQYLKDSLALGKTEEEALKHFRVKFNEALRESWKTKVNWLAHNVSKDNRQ

Homo sapiens [5] = species on record: Homo sapiens; assay: Selectivity ratio of IC50 for inhibition of PI3Kalpha (unknown origin) to IC50 for inhibition of PI3Kgamma (unknown origin)
[6] = target: Phosphatidylinositol 4,5-bisphosphate 3-kinase catalytic subunit beta isoform (Homo sapiens, UniProt P42338); assay: Inhibition of PI3Kbeta (unknown origin) using PIP2 as substrate preincubated for 1 hr followed by substrate addition and measured after 60 mins in presence of ATP by ADP-glo assay
Chain of Phosphatidylinositol 4,5-bisphosphate 3-kinase catalytic subunit beta isoform (P42338 whole entry, canonical isoform): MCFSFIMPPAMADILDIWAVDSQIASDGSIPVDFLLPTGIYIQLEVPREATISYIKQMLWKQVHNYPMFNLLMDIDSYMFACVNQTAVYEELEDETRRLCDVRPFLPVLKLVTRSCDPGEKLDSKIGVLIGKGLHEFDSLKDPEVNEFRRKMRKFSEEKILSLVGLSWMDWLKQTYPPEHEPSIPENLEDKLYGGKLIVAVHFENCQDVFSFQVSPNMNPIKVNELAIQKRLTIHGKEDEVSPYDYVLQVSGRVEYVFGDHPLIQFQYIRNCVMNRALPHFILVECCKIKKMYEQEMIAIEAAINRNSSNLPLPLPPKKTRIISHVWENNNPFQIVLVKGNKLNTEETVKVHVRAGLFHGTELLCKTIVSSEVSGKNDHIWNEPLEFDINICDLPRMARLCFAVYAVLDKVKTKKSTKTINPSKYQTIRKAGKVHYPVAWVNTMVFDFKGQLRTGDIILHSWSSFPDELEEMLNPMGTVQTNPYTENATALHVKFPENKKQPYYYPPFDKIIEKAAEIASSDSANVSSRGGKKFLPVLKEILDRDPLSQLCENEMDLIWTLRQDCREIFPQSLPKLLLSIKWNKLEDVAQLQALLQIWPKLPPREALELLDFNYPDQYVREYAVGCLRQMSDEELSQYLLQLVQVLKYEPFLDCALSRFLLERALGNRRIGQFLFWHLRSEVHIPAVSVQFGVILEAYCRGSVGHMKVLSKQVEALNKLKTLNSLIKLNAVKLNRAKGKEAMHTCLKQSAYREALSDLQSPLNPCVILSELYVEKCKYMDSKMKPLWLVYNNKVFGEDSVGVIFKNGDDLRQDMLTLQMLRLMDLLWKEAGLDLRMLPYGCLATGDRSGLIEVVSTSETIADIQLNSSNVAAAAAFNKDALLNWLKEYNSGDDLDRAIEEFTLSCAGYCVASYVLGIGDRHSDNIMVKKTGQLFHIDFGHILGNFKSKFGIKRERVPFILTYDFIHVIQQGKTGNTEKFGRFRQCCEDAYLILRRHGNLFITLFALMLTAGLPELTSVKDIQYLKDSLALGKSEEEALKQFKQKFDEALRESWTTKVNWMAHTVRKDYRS

[7] = target: T1, Phosphatidylinositol 4,5-bisphosphate 3-kinase catalytic subunit gamma isoform; assay: Inhibition of PI3Kgamma in SDF-1alpha stimulated human whole blood assessed as reduction in phospho-AKT kinase activity preincubated for 1 hr followed by SDF-1alpha stimulation and measured after 2 mins by flow cytometric analysis; assay type: tissue-based
CYP3A4 = CYP3A4 (Homo sapiens, UniProt P08684); assay: in vitro; conditions: human liver microsomes, probe midazolam
Chain of CYP3A4 (P08684 whole entry): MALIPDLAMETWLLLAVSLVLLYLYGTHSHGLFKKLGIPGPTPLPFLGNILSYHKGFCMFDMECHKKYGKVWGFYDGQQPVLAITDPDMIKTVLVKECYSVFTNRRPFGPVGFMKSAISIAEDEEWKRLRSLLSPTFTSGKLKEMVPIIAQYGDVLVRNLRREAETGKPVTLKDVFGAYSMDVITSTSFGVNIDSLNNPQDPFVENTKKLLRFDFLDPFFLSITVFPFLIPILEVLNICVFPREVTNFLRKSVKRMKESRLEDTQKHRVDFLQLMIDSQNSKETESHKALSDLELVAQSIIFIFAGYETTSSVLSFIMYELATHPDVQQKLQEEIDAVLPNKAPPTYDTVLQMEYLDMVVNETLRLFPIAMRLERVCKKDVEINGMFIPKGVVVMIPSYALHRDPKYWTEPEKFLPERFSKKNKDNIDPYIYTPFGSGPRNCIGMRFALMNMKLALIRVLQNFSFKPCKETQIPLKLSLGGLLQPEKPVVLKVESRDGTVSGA
Description: Time dependent inhibition of CYP3A4 in human liver microsomes at 10 uM using midazolam as substrate preincubated for 30 mins in presence of NADPH by LC/MS/MS analysis relative to control

[8] = Metabolic stability in human hepatocytes assessed as intrinsic clearance per 10^6 cells at 0.5 uM by LC-MS/MS analysis; assay type: ADME, cell-based, Hepatocyte; conditions: read-out: CLH
[9] = target: Phosphatidylinositol 4,5-bisphosphate 3-kinase catalytic subunit alpha isoform (Homo sapiens, UniProt P42336); assay: Inhibition of PI3Kalpha (unknown origin) using PIP2 as substrate preincubated for 1 hr followed by substrate addition and measured after 60 mins in presence of ATP by ADP-glo assay
Chain of Phosphatidylinositol 4,5-bisphosphate 3-kinase catalytic subunit alpha isoform (P42336 whole entry, canonical isoform): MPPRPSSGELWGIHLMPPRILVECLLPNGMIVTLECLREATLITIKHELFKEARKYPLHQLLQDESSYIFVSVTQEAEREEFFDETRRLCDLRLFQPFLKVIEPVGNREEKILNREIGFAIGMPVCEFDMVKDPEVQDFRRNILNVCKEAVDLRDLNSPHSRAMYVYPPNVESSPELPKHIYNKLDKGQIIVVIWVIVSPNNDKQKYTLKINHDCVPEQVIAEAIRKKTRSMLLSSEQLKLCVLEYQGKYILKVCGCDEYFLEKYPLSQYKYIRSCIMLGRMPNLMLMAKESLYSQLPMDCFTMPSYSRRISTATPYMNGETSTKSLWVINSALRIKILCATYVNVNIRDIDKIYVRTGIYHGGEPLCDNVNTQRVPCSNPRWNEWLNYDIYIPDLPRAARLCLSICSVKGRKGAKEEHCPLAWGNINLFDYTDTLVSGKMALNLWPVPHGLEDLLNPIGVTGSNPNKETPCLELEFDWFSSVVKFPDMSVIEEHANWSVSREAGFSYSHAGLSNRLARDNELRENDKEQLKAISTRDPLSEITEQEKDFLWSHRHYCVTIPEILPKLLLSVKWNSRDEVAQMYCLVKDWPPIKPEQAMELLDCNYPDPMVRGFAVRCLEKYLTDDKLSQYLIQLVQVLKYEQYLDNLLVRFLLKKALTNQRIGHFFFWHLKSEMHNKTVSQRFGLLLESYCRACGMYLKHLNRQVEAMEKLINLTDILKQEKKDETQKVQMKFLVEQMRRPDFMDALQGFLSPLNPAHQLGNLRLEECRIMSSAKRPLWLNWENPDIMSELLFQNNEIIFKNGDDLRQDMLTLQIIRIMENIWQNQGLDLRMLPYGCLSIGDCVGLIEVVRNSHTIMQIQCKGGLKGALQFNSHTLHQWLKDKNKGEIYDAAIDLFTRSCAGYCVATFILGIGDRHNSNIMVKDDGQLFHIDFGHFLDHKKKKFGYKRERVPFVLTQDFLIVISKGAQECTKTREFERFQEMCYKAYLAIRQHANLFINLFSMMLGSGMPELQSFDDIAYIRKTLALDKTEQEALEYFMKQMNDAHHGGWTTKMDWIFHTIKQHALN

Homo sapiens [10] = species on record: Homo sapiens; assay: Selectivity ratio of IC50 for inhibition of PI3Kbeta (unknown origin) to IC50 for inhibition of PI3Kgamma (unknown origin)
[11] = target: T1, Phosphatidylinositol 4,5-bisphosphate 3-kinase catalytic subunit gamma isoform; assay: Inhibition of PI3Kgamma (unknown origin) in […] stimulated human THP-1 cells assessed as reduction in Akt phosphorylation level at Ser473 residue preincubated for 60 mins followed by rhMCP-1 stimulation and measured after 2 mins by AlphaLisa assay; assay type: cell-based
Homo sapiens [12] = species on record: Homo sapiens; assay: Selectivity ratio of IC50 for inhibition of PI3Kdelta (unknown origin) to IC50 for inhibition of PI3Kgamma (unknown origin)
hERG [13] = target: T3, hERG (Homo sapiens, UniProt Q12809); assay: Inhibition of human ERG at 10 uM by patch clamp assay relative to control; assay type: toxicity
T3 sequence (Q12809 whole entry): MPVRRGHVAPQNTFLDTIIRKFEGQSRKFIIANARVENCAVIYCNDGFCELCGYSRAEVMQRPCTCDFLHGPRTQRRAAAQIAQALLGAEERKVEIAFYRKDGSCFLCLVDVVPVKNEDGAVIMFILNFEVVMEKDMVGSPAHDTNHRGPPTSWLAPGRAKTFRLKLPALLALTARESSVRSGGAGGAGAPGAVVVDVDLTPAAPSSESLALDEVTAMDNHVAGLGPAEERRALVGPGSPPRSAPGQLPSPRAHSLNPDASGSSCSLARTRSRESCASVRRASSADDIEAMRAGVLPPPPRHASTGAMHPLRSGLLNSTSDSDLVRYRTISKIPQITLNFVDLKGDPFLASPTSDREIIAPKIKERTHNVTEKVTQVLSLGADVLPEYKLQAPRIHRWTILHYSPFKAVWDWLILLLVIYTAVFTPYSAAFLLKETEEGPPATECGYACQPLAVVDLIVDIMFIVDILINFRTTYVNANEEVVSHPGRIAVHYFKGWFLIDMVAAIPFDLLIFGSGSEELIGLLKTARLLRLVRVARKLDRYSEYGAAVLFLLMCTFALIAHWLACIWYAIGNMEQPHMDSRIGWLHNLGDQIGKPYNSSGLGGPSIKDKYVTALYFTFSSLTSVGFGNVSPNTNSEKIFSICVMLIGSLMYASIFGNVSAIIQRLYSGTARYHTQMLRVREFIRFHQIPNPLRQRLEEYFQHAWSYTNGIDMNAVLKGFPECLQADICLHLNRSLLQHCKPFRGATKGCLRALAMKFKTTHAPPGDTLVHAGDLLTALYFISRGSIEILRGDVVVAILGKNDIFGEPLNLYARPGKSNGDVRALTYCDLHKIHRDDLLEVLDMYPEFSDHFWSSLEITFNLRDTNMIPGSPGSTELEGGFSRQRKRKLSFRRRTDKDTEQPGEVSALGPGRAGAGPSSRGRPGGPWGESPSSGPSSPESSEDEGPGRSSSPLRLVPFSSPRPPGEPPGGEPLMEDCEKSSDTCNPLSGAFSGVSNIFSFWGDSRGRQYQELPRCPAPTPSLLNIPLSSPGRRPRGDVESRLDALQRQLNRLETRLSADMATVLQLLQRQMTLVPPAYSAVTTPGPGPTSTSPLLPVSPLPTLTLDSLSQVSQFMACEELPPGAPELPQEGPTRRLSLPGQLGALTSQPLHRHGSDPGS

hERG [14] = target: T3, hERG; assay: Inhibition of human ERG at 3 uM by patch clamp assay relative to control; assay type: toxicity

## C[C@@H](C1CC1)N1Cc2cc(-c3ccn4nc(N)c(C(=O)N[C@@H](CO)C5CC5)c4n3)cc(OC(F)(F)F)c2C1=O
[1]
  hepatocyte intrinsic clearance: < 1.2 µL/min
[2]
  CLH: 21.7 mL/min/kg
[3]
  IC50: 2.8 nM
[4]
  IC50: 1790 nM
Homo sapiens [5]
  Ratio IC50: 733
[6]
  IC50: 8550 nM
[7]
  IC50: 750 nM
CYP3A4
  inhibition at 30 min, 10 µM: 6%
[8]
  hepatocyte CLint at 0.5 µM: 4.05 µL/min/1e6 cells
[9]
  IC50: 2060 nM
Homo sapiens [10]
  Ratio IC50: 3040
[11]
  IC50: 72 nM

## C[C@H](N1Cc2cc(-c3ccn4nc(N)c(C(=O)N[C@@H](CO)C5CC5)c4n3)cc(NS(C)(=O)=O)c2C1=O)C(F)(F)F
[1]
  hepatocyte intrinsic clearance: 2.48 µL/min
[3]
  IC50: 3.5 nM
[4]
  IC50: 825 nM
Homo sapiens [5]
  Ratio IC50: 474
[7]
  IC50: 1300 nM
[8]
  hepatocyte CLint at 0.5 µM: 6.31 µL/min/1e6 cells
[9]
  IC50: 1640 nM
[11]
  IC50: 72 nM
Homo sapiens [12]
  Ratio IC50: 238

## C[C@@H](C1CC1)N1Cc2cc(-c3ccn4nc(N)c(C(=O)N[C@H]5CC[C@](C)(O)CC5)c4n3)cc(NS(C)(=O)=O)c2C1=O
[1]
  hepatocyte intrinsic clearance: 8.24 µL/min
[2]
  CLH: 30 mL/min/kg
[3]
  IC50: 0.9 nM
[4]
  IC50: 268 nM
Homo sapiens [5]
  Ratio IC50: 362
[6]
  IC50: 7570 nM
[7]
  IC50: 420 nM
CYP3A4
  inhibition at 30 min, 10 µM: 12%
[8]
  hepatocyte CLint at 0.5 µM: 3.39 µL/min/1e6 cells
[9]
  IC50: 326 nM
Homo sapiens [10]
  Ratio IC50: 8410
[11]
  IC50: 22 nM

## C[C@@H](C1CC1)N1Cc2cc(-c3ccn4nc(N)c(C(=O)N[C@@H](CO)C5CC5)c4n3)cc(OC(F)F)c2C1=O
[1]
  hepatocyte intrinsic clearance: 8.42 µL/min
[2]
  CLH: 15 mL/min/kg
[3]
  IC50: 3.1 nM
[4]
  IC50: 3110 nM
Homo sapiens [5]
  Ratio IC50: 611
[6]
  IC50: 29400 nM
[7]
  IC50: 510 nM
CYP3A4
  inhibition at 30 min, 10 µM: 18%
[8]
  hepatocyte CLint at 0.5 µM: 4.35 µL/min/1e6 cells
[9]
  IC50: 1910 nM
Homo sapiens [10]
  Ratio IC50: 9400
hERG [13]
  inhibition at 10 µM: 21%
[11]
  IC50: 48 nM

## C[C@@H](C1CC1)N1Cc2cc(-c3ccn4nc(N)c(C(=O)N[C@H]5CC[C@](O)(C(F)(F)F)CC5)c4n3)cc(NS(C)(=O)=O)c2C1=O
[1]
  hepatocyte intrinsic clearance: 11 µL/min
[2]
  CLH: 23.3 mL/min/kg
[3]
  IC50: 2.1 nM
[4]
  IC50: 1060 nM
Homo sapiens [5]
  Ratio IC50: 1880
hERG [14]
  inhibition at 3 µM: 45%
[6]
  IC50: 9780 nM
[7]
  IC50: 210 nM
CYP3A4
  inhibition at 30 min, 10 µM: 17%
[8]
  hepatocyte CLint at 0.5 µM: 1.9 µL/min/1e6 cells
[9]
  IC50: 4030 nM
Homo sapiens [10]
  Ratio IC50: 4560
hERG [13]
  inhibition at 10 µM: 68%
[11]
  IC50: 52 nM

## C[C@@H](C1CC1)N1Cc2cc(-c3ccn4nc(N)c(C(=O)N[C@@H](CO)C5CC5)c4n3)cc(NS(C)(=O)=O)c2C1=O
[1]
  hepatocyte intrinsic clearance: < 1.2 µL/min
[3]
  IC50: 0.8 nM
[4]
  IC50: 991 nM
Homo sapiens [5]
  Ratio IC50: 1470
[7]
  IC50: 260 nM
CYP3A4
  inhibition at 30 min, 10 µM: 35%
[8]
  hepatocyte CLint at 0.5 µM: 4.09 µL/min/1e6 cells
[9]
  IC50: 1200 nM
[11]
  IC50: 33 nM

## C[C@H](N1Cc2cc(-c3ccn4nc(N)c(C(=O)N[C@H]5CC[C@@](C)(O)CC5)c4n3)cc(NS(C)(=O)=O)c2C1=O)C(F)(F)F
[1]
  hepatocyte intrinsic clearance: 3.38 µL/min
[3]
  IC50: 3.2 nM
[4]
  IC50: 146 nM
Homo sapiens [5]
  Ratio IC50: 61
[7]
  IC50: 800 nM
[8]
  hepatocyte CLint at 0.5 µM: 2.44 µL/min/1e6 cells
[9]
  IC50: 194 nM
[11]
  IC50: 31 nM
Homo sapiens [12]
  Ratio IC50: 46

## C[C@H](N1Cc2cc(-c3ccn4nc(N)c(C(=O)N[C@@H](CO)C5CC5)c4n3)cc(OC(F)F)c2C1=O)C(F)(F)F
[1]
  hepatocyte intrinsic clearance: 8.28 µL/min
[3]
  IC50: 3.4 nM
[4]
  IC50: 419 nM
Homo sapiens [5]
  Ratio IC50: 385
[7]
  IC50: 600 nM
[8]
  hepatocyte CLint at 0.5 µM: 7.17 µL/min/1e6 cells
[9]
  IC50: 1320 nM
[11]
  IC50: 68 nM
Homo sapiens [12]
  Ratio IC50: 122

## C[C@H](N1Cc2cc(-c3ccn4nc(N)c(C(=O)N[C@@H](CO)C5CC5)c4n3)cc(Cl)c2C1=O)C(F)(F)F
[1]
  hepatocyte intrinsic clearance: 2.98 µL/min
[3]
  IC50: 3.1 nM
[4]
  IC50: 4640 nM
Homo sapiens [5]
  Ratio IC50: > 3140
[7]
  IC50: 600 nM
[8]
  hepatocyte CLint at 0.5 µM: 3.18 µL/min/1e6 cells
[9]
  IC50: > 10000 nM
[11]
  IC50: 83 nM
Homo sapiens [12]
  Ratio IC50: 1460
